Literature values as cited in Sander's compilation of Henry's law constants (doi:10.1039/f19888401985).

Assay: Henry solubility constant Hcp at 298.15 K (mol/(m3 Pa))
Conditions: reference: Abraham and Matteoli (1988); cited value

Row | Henry solubility constant Hcp | SMILES
1 | 1.4e-05 | [Ar] [argon]
2 | 3.1e-06 | CCCCCCCC [octane]
3 | 8e-06 | CCCCC [pentane]
4 | 9.1e-05 | [Rn] [radon]
5 | 4.3e-05 | [Xe] [xenon]

Second part, the molecule before the results:

Row | SMILES | Henry solubility constant Hcp
6 | CCCC [butane] | 1.3e-05
7 | [He] [helium] | 3.8e-06
8 | CCCCCCC [heptane] | 4.4e-06
9 | CCCCCC [hexane] | 6.1e-06
10 | [Kr] [krypton] | 2.5e-05
11 | [Ne] [neon] | 4.4e-06
